Assay results reported in PubChem BioAssay (NCI).
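Method: 48-hour compound exposure of cells in 96-well plates, five concentrations, linear interpolation of endpoints. GI50 marks 50% less growth. TGI denotes the concentration required for complete inhibition of growth.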

Tests used:
Test in all cases: DTP human tumour cell line panel, 48 h
SK-OV-3 ovarian = system: SK-OV-3 ovarian
A498 renal = system: A498 renal
MCF7 breast = system: MCF7 breast
TK-10 renal = system: TK-10 renal
NCI-H522 lung = system: NCI-H522 lung
SK-MEL-28 melanoma = system: SK-MEL-28 melanoma
OVCAR-3 ovarian = system: OVCAR-3 ovarian
OVCAR-8 ovarian = system: OVCAR-8 ovarian
DU-145 prostate = system: DU-145 prostate
UACC-62 melanoma = system: UACC-62 melanoma
A549 NSCLC = system: A549 NSCLC
SF-295 CNS = system: SF-295 CNS
U251 CNS = system: U251 CNS
CCRF-CEM leukemia = system: CCRF-CEM leukemia
OVCAR-5 ovarian = system: OVCAR-5 ovarian
BT-549 breast = system: BT-549 breast
MDA-MB-435 = system: MDA-MB-435
MDA-MB-231 breast = system: MDA-MB-231 breast
OVCAR-4 ovarian = system: OVCAR-4 ovarian
SNB-75 CNS = system: SNB-75 CNS
EKVX NSCLC = system: EKVX NSCLC
SR leukemia = system: SR leukemia
NCI-H226 lung = system: NCI-H226 lung
HOP-62 NSCLC = system: HOP-62 NSCLC
KM12 colon = system: KM12 colon
SNB-19 CNS = system: SNB-19 CNS
NCI/ADR-RES ovarian = system: NCI/ADR-RES ovarian
HL-60(TB) leukemia = system: HL-60(TB) leukemia
SF-268 CNS = system: SF-268 CNS
NCI-H460 lung = system: NCI-H460 lung
SF-539 CNS = system: SF-539 CNS
K-562 leukemia = system: K-562 leukemia
HS 578T breast = system: HS 578T breast
IGROV1 ovarian = system: IGROV1 ovarian
786-0 renal = system: 786-0 renal
MOLT-4 leukemia = system: MOLT-4 leukemia
CAKI-1 renal = system: CAKI-1 renal
UACC-257 melanoma = system: UACC-257 melanoma
SK-MEL-5 melanoma = system: SK-MEL-5 melanoma
HT29 colon = system: HT29 colon
RPMI-8226 leukemia = system: RPMI-8226 leukemia
HOP-92 NSCLC = system: HOP-92 NSCLC
UO-31 renal = system: UO-31 renal
HCT-15 colon = system: HCT-15 colon
HCC-2998 colon = system: HCC-2998 colon
SW-620 colon = system: SW-620 colon
SN12C renal = system: SN12C renal
SK-MEL-2 melanoma = system: SK-MEL-2 melanoma
M14 melanoma = system: M14 melanoma
RXF 393 renal = system: RXF 393 renal
LOX IMVI melanoma = system: LOX IMVI melanoma
PC-3 prostate = system: PC-3 prostate
MALME-3M melanoma = system: MALME-3M melanoma
T-47D breast = system: T-47D breast
HCT-116 colon = system: HCT-116 colon
COLO 205 colon = system: COLO 205 colon
ACHN renal = system: ACHN renal

Structure (SMILES): COc1cc2cc(Oc3ccc(NC(=O)c4cccc(C(F)(F)F)c4)cc3)c(C)nc2cc1OCCN1CCCCC1
- GI50 (SK-OV-3 ovarian): > 100 µM
- TGI (SK-OV-3 ovarian): > 100 µM
- GI50 (A498 renal): > 100 µM
- TGI (A498 renal): > 100 µM
- GI50 (MCF7 breast): 14.4 µM
- TGI (MCF7 breast): 29.7 µM
- GI50 (TK-10 renal): > 100 µM
- TGI (TK-10 renal): > 100 µM
- GI50 (NCI-H522 lung): 16 µM
- TGI (NCI-H522 lung): 31.3 µM
- GI50 (SK-MEL-28 melanoma): 17.1 µM
- TGI (SK-MEL-28 melanoma): 31.4 µM
- GI50 (OVCAR-3 ovarian): 22.3 µM
- TGI (OVCAR-3 ovarian): 47.6 µM
- GI50 (OVCAR-8 ovarian): 18.2 µM
- TGI (OVCAR-8 ovarian): 36.7 µM
- GI50 (DU-145 prostate): 41.6 µM
- TGI (DU-145 prostate): > 100 µM
- GI50 (UACC-62 melanoma): 18.8 µM
- TGI (UACC-62 melanoma): 36.1 µM
- GI50 (A549 NSCLC): 27.5 µM
- TGI (A549 NSCLC): > 100 µM
- GI50 (SF-295 CNS): 18.3 µM
- TGI (SF-295 CNS): 34 µM
- GI50 (U251 CNS): 17.8 µM
- TGI (U251 CNS): 34 µM
- GI50 (CCRF-CEM leukemia): 29.8 µM
- TGI (CCRF-CEM leukemia): > 100 µM
- GI50 (OVCAR-5 ovarian): 41.4 µM
- TGI (OVCAR-5 ovarian): > 100 µM
- GI50 (BT-549 breast): > 100 µM
- TGI (BT-549 breast): > 100 µM
- GI50 (MDA-MB-435): 16.7 µM
- TGI (MDA-MB-435): 31.4 µM
- GI50 (MDA-MB-231 breast): 18.4 µM
- TGI (MDA-MB-231 breast): 36.9 µM
- GI50 (OVCAR-4 ovarian): 19.4 µM
- TGI (OVCAR-4 ovarian): 45.7 µM
- GI50 (SNB-75 CNS): 15 µM
- TGI (SNB-75 CNS): 29.9 µM
- GI50 (EKVX NSCLC): 31.6 µM
- TGI (EKVX NSCLC): > 100 µM
- GI50 (SR leukemia): 18.2 µM
- TGI (SR leukemia): 46.1 µM
- GI50 (NCI-H226 lung): > 100 µM
- TGI (NCI-H226 lung): > 100 µM
- GI50 (HOP-62 NSCLC): 33.6 µM
- TGI (HOP-62 NSCLC): > 100 µM
- GI50 (KM12 colon): 30.3 µM
- TGI (KM12 colon): > 100 µM
- GI50 (SNB-19 CNS): 34.8 µM
- TGI (SNB-19 CNS): > 100 µM
- GI50 (NCI/ADR-RES ovarian): 33.9 µM
- TGI (NCI/ADR-RES ovarian): > 100 µM
- GI50 (HL-60(TB) leukemia): 19.6 µM
- TGI (HL-60(TB) leukemia): 42.4 µM
- GI50 (SF-268 CNS): 20.4 µM
- TGI (SF-268 CNS): 43.4 µM
- GI50 (NCI-H460 lung): 19 µM
- TGI (NCI-H460 lung): 37.3 µM
- GI50 (SF-539 CNS): 16.9 µM
- TGI (SF-539 CNS): 30.9 µM
- GI50 (K-562 leukemia): 19.3 µM
- TGI (K-562 leukemia): 47 µM
- GI50 (HS 578T breast): 19.4 µM
- TGI (HS 578T breast): 53 µM
- GI50 (IGROV1 ovarian): 38.4 µM
- TGI (IGROV1 ovarian): > 100 µM
- GI50 (786-0 renal): 16.5 µM
- TGI (786-0 renal): 32.8 µM
- GI50 (MOLT-4 leukemia): 20.9 µM
- TGI (MOLT-4 leukemia): 58.5 µM
- GI50 (CAKI-1 renal): 16 µM
- TGI (CAKI-1 renal): 32.2 µM
- GI50 (UACC-257 melanoma): 17.2 µM
- TGI (UACC-257 melanoma): 32.2 µM
- GI50 (SK-MEL-5 melanoma): 17.1 µM
- TGI (SK-MEL-5 melanoma): 30.9 µM
- GI50 (HT29 colon): 18 µM
- TGI (HT29 colon): 37.1 µM
- GI50 (RPMI-8226 leukemia): 20.6 µM
- TGI (RPMI-8226 leukemia): 52.4 µM
- GI50 (HOP-92 NSCLC): 21.7 µM
- TGI (HOP-92 NSCLC): > 100 µM
- GI50 (UO-31 renal): 15.4 µM
- TGI (UO-31 renal): 30 µM
- GI50 (HCT-15 colon): 16 µM
- TGI (HCT-15 colon): 30.9 µM
- GI50 (HCC-2998 colon): 18.2 µM
- TGI (HCC-2998 colon): 34.6 µM
- GI50 (SW-620 colon): 21.3 µM
- TGI (SW-620 colon): 42.8 µM
- GI50 (SN12C renal): 17.6 µM
- TGI (SN12C renal): 34.4 µM
- GI50 (SK-MEL-2 melanoma): > 100 µM
- TGI (SK-MEL-2 melanoma): > 100 µM
- GI50 (M14 melanoma): 17.9 µM
- TGI (M14 melanoma): 35.1 µM
- GI50 (RXF 393 renal): 13.2 µM
- TGI (RXF 393 renal): 26.6 µM
- GI50 (LOX IMVI melanoma): 17.8 µM
- TGI (LOX IMVI melanoma): 32.5 µM
- GI50 (PC-3 prostate): 19 µM
- TGI (PC-3 prostate): 42 µM
- GI50 (MALME-3M melanoma): 18.3 µM
- TGI (MALME-3M melanoma): 34 µM
- GI50 (T-47D breast): 18.1 µM
- TGI (T-47D breast): 46.1 µM
- GI50 (HCT-116 colon): 20.6 µM
- TGI (HCT-116 colon): 48.9 µM
- GI50 (COLO 205 colon): 16.4 µM
- TGI (COLO 205 colon): 31 µM
- GI50 (ACHN renal): 21.5 µM
- TGI (ACHN renal): 49.2 µM
